Experimental data: patent publication US20210255193A1, “LYSINE REACTIVE PROBES AND USES THEREOF” (The Scripps Research Institute, priority 2017, published 2021)

What was measured:
Experiment in all cases: competitive isoTOP-ABPP
Type in all cases: binding
[1] = biological target: T1, TPD52L2 Tumor protein D54 (Homo sapiens, UniProt O43399); set-up: key to isoTOP-ABPP reactivity ratio at lysine O43399_K90: R = MS1 peak area ratio, DMSO (heavy) / compound-treated (light); details: 50 uM, in vitro; for isoTOP-ABPP ratio (R) at liganded lysine O43399_K90: sol, 231
T1 construct: isoTOP-ABPP experiments performed in cell lysates (in vitro); endogenous in cells; host or cells: MDA-MB-231 soluble lysate
Procedure: (§1) In vitro covalent fragment treatment for isoTOP-ABPP. All compounds were made up as solutions in DMSO (100×) and were used at a final concentration of 50 μM for activated esters and 100 μM for guanidinylating agents. For each profiling sample, 0.5 ml of lysate was treated with 5 μl of the 100× compound stock solution or 5 μl of DMSO. Samples were treated with activated esters for
(§2) STP-alkyne labeling and click chemistry. For concentration-dependent reactivity measurements by isoTOP-ABPP, 0.5 ml proteome aliquots were treated at ambient temperature with 1 mM STP-alkyne 1 (5 μl of 100 mM stock in DMSO) and 0.1 mM STP alkyne 1 (5 μl of 10 mM stock in DMSO), respectively. For competitive isoTOP-ABPP, after in vitro fragment treatment (detailed above), the samples were labeled for 1 h at ambient temperature with 0.1 mM STP-alkyne 1 (5 μl of 10 mM stock in DMSO). Samples were conjugated by copper-mediated azide-alkyne cycloaddition (CuAAC) to either the light (1 mM STP-alkyne or fragment treated) or heavy (0.1 mM STP-alkyne or DMSO treated) TEV tags (10 μl of 5 mM stocks in DMSO, final concentration=100 μM) using tris(2-carboxyethyl)phosphine hydrochloride
(§3) R value calculation and processing. The ratios of light and heavy MS1 peaks for each unique peptide were quantified with a CIMAGE software using default parameters (3 MS1 acquisitions per peak and signal to noise threshold set to 2.5). For reactivity measurements by isoTOP-ABPP, the R value was calculated from the ratio of MS1 peak areas, comparing the 1 mM STP alkyne sample (light TEV tag) with the 0.1 mM STP alkyne sample (heavy TEV tag). For competitive isoTOP-ABPP, the R value was calculated from the ratio of MS1 peak areas, comparing the DMSO treated sample (heavy TEV tag) with the compound treated sample (light TEV tag). […] Ratios for unique peptide entries are calculated for each experiment; overlapping peptides with the same modified lysine (for example, different charge states, MudPIT chromatographic steps or tryptic termini) are grouped together and the median ratio is reported as the final ratio (R). The peptide ratios reported by CIMAGE were further filtered to ensure the removal or correction of low-quality ratios in each individual data set. The quality filters applied were the following: removal of half tryptic peptides; for ratios with high standard deviations from the median (90% of the median or above) the lowest ratio was taken instead of the median; removal of peptides with R=20 and only a single MS2 event triggered during the elution of the parent ion; manual annotation of all the peptides with ratios of 20, removing any peptides with low quality elution profiles that remained after the previous curation steps (only done for competitive isoTOP-ABPP).
(§4) Cross-data processing for fragment screening. For compound treated samples, biological replicates of the same condition were averaged, if the standard deviation was below 60% of the mean; otherwise, for lysines with at least one R value <4 for a particular compound, the lowest value of the ratio set was taken. For lysines, where all R values for a particular compound were ≥4, the average was reported. For peptides containing several possible modified lysines, the lysine with the highest number of quantification events was used for analysis and the remaining, redundant peptides were reported as alternative modification sites. Peptides included in the aggregate dataset (those used for further bioinformatics and statistical analyses) were required to have been quantified in 2 experiments for competitive isoTOP-ABPP. Lysines were categorized as liganded, if they had at least one ratio R≥4 (hit fragments). For liganded lysines with R=20 for all liganding events, lysines were required to have been quantified with R=20 in two separate experiments and were further required to have been quantified with R<20 in one additional experiment.

[2] = biological target: T2, CPOX Coproporphyrinogen-III oxidase, mitochondrial (Homo sapiens, UniProt P36551); set-up: key to isoTOP-ABPP reactivity ratio at lysine P36551_K404: R = MS1 peak area ratio, DMSO (heavy) / compound-treated (light); details: 50 uM, in vitro; for isoTOP-ABPP ratio (R) at liganded lysine P36551_K404: sol, 231
T2 construct: isoTOP-ABPP experiments performed in cell lysates (in vitro); endogenous in cells; host or cells: soluble proteome of human cancer cell lines (MDA-MB-231; Ramos and Jurkat also prepared)
T2 sequence (P36551 111-454): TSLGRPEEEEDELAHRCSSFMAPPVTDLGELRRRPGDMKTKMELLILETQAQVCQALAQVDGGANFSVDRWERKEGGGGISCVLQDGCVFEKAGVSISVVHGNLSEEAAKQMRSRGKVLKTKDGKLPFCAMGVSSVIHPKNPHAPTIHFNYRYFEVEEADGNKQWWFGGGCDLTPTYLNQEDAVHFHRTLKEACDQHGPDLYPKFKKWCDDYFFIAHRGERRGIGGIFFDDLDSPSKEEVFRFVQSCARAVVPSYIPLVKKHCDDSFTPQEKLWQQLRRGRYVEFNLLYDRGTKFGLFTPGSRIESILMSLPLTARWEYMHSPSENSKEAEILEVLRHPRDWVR
Procedure: as §1, §2, §3, §4

[3] = biological target: T3, PFKP 6-phosphofructokinase type C (Homo sapiens, UniProt Q01813); set-up: key to isoTOP-ABPP reactivity ratio at lysine Q01813_K688: R = MS1 peak area ratio, DMSO (heavy) / compound-treated (light); details: 50 uM, in vitro; for isoTOP-ABPP ratio (R) at liganded lysine Q01813_K688: sol, 231
T3 construct: isoTOP-ABPP experiments performed in cell lysates (in vitro); endogenous in cells
T3 sequence (Q01813 1-784): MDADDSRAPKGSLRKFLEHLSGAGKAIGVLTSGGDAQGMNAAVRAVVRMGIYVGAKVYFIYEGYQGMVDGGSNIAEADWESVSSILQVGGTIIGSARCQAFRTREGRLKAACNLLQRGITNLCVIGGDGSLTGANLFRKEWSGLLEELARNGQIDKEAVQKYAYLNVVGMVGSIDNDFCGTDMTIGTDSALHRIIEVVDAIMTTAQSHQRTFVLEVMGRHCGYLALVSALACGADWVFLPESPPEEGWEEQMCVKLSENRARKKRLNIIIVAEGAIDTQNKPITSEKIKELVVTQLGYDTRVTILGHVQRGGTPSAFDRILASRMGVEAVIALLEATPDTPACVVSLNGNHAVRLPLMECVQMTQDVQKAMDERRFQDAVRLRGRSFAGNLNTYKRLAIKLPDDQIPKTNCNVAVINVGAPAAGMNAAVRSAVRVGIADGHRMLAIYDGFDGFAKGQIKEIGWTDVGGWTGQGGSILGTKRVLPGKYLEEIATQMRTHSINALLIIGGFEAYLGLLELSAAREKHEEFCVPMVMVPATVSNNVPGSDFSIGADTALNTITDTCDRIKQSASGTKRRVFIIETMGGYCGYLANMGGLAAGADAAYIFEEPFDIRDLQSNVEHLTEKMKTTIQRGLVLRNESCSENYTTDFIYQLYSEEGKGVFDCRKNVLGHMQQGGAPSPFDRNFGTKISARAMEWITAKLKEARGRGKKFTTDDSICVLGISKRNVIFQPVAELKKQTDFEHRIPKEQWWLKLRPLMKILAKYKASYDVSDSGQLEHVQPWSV
Procedure: as §1, §2, §3, §4

T1 sequence (O43399 whole entry): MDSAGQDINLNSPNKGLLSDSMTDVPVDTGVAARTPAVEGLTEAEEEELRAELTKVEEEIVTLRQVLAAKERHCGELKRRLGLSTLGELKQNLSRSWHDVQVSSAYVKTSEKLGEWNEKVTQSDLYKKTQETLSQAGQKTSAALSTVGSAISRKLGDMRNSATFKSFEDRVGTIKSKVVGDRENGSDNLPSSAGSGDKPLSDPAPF

With COc1cc(CCC(=O)Oc2ccc([N+](=O)[O-])cc2[N+](=O)[O-])cc(OC)c1OC [fragment 33, 2,4-Dinitrophenyl 3-(3,4,5-trimethoxyphenyl)propanoate] the “isoTOP-ABPP reactivity ratio at lysine O43399_K90” value ([1]; 231 sol) was 1.3, the “isoTOP-ABPP reactivity ratio at lysine P36551_K404” value ([2]; 231 sol) was 1.0 and the “isoTOP-ABPP reactivity ratio at lysine Q01813_K688” value ([3]; 231 sol) was 20.0.
In the case of O=C(Oc1ccc([N+](=O)[O-])cc1[N+](=O)[O-])C1CCN(C(=O)OCc2ccccc2)CC1 [fragment 34, 1-Benzyl 4-(2,4-dinitrophenyl) piperidine-1,4-dicarboxylate], the “isoTOP-ABPP ratio (R) at liganded lysine O43399_K90” value [1] is reported as 1.8, the “isoTOP-ABPP ratio (R) at liganded lysine P36551_K404” value [2] is reported as 1.1 and the “isoTOP-ABPP ratio (R) at liganded lysine Q01813_K688” value [3] is reported as 1.9.
O=C(Oc1ccc([N+](=O)[O-])cc1[N+](=O)[O-])c1ccc2ccccc2n1 [fragment 35, 2,4-Dinitrophenyl quinoline-2-carboxylate] was tested, and the “isoTOP-ABPP ratio (R) at liganded lysine O43399_K90” value [1] was 1.3, the “isoTOP-ABPP ratio (R) at liganded lysine P36551_K404” value [2] was 1.2 and the “isoTOP-ABPP ratio (R) at liganded lysine Q01813_K688” value [3] was 3.3.
O=C(CCc1coc2cc(F)ccc2c1=O)Oc1ccc([N+](=O)[O-])cc1[N+](=O)[O-] [fragment 36, 2,4-Dinitrophenyl 3-(7-fluoro-4-oxo-4H-chromen-3-yl)propanoate] was tested, and the “isoTOP-ABPP ratio (R) at liganded lysine O43399_K90” value [1] was 1.3, the “isoTOP-ABPP ratio (R) at liganded lysine P36551_K404” value [2] was 1.0 and the “isoTOP-ABPP ratio (R) at liganded lysine Q01813_K688” value [3] was 20.0.
For O=C(Oc1ccc([N+](=O)[O-])cc1[N+](=O)[O-])c1ccc(-c2ccccc2)cc1 [fragment 37, 2,4-Dinitrophenyl [1,1′-biphenyl]-4-carboxylate], the “isoTOP-ABPP ratio (R) at liganded lysine O43399_K90” value [1] was 1.6, the “isoTOP-ABPP ratio (R) at liganded lysine P36551_K404” value [2] was 1.0 and the “isoTOP-ABPP ratio (R) at liganded lysine Q01813_K688” value [3] was 1.0.
For O=C(CC12CC3CC(CC(C3)C1)C2)Oc1ccc([N+](=O)[O-])cc1[N+](=O)[O-] [fragment 38, 2,4-Dinitrophenyl 2-(adamantan-1-yl)acetate], the “isoTOP-ABPP ratio (R) at liganded lysine O43399_K90” value [1] was 2.9, the “isoTOP-ABPP ratio (R) at liganded lysine P36551_K404” value [2] was 1.0 and the “isoTOP-ABPP ratio (R) at liganded lysine Q01813_K688” value [3] was 4.1.
In the case of O=C(Oc1ccc([N+](=O)[O-])cc1[N+](=O)[O-])c1ccc(Oc2ccccc2)cc1 [fragment 39, 2,4-Dinitrophenyl 4-phenoxybenzoate], the “isoTOP-ABPP ratio (R) at liganded lysine O43399_K90” value [1] is reported as 1.3, the “isoTOP-ABPP ratio (R) at liganded lysine P36551_K404” value [2] is reported as 1.0 and the “isoTOP-ABPP ratio (R) at liganded lysine Q01813_K688” value [3] is reported as 1.0.
For O=C(Oc1ccc([N+](=O)[O-])cc1[N+](=O)[O-])c1ccccc1Nc1cccc(C(F)(F)F)c1 [fragment 40, 2,4-Dinitrophenyl 2-((3-(trifluoromethyl)phenyl)amino)benzoate], the “isoTOP-ABPP ratio (R) at liganded lysine O43399_K90” value [1] was 1.2, the “isoTOP-ABPP ratio (R) at liganded lysine P36551_K404” value [2] was 1.8 and the “isoTOP-ABPP ratio (R) at liganded lysine Q01813_K688” value [3] was 1.0.
For CC(C)(C)OC(=O)NCCCC(=O)Oc1ccc([N+](=O)[O-])cc1[N+](=O)[O-] [fragment 41, 2,4-Dinitrophenyl 4-((tert-butoxycarbonyl)amino)butanoate], the “isoTOP-ABPP ratio (R) at liganded lysine O43399_K90” value [1] was 1.3, the “isoTOP-ABPP ratio (R) at liganded lysine P36551_K404” value [2] was 1.0 and the “isoTOP-ABPP ratio (R) at liganded lysine Q01813_K688” value [3] was 4.9.
In the case of O=C(Oc1ccc([N+](=O)[O-])cc1[N+](=O)[O-])C(c1ccccc1)(c1ccccc1)c1ccccc1 [fragment 42, 2,4-Dinitrophenyl 2,2,2-triphenylacetate], the “isoTOP-ABPP ratio (R) at liganded lysine O43399_K90” value [1] is reported as 1.0, the “isoTOP-ABPP ratio (R) at liganded lysine P36551_K404” value [2] is reported as 1.0 and the “isoTOP-ABPP ratio (R) at liganded lysine Q01813_K688” value [3] is reported as 1.0.
CC(=O)Oc1ccc([N+](=O)[O-])cc1[N+](=O)[O-] [fragment 43, 2,4-Dinitrophenyl acetate] was tested, and the “isoTOP-ABPP ratio (R) at liganded lysine O43399_K90” value [1] was 1.1, the “isoTOP-ABPP ratio (R) at liganded lysine P36551_K404” value [2] was 1.1 and the “isoTOP-ABPP ratio (R) at liganded lysine Q01813_K688” value [3] was 3.9.
